Test results as given in BindingDB's records for doi:10.1016/j.bmc.2010.08.049 (University of Wisconsin-Milwaukee, 2010).

How the values were obtained:
[1] = target: T1, Gamma-aminobutyric acid receptor subunit alpha-3/beta-3/gamma-2 (Homo sapiens, UniProt P34903+P18507+P28472); test: Displacement of [3H]flunitrazepam from human recombinant GABAA alpha-3-beta-3-gamma-2 receptor expressed in HEK cells by liquid scintillation counting
T1 sequence (P34903 whole entry): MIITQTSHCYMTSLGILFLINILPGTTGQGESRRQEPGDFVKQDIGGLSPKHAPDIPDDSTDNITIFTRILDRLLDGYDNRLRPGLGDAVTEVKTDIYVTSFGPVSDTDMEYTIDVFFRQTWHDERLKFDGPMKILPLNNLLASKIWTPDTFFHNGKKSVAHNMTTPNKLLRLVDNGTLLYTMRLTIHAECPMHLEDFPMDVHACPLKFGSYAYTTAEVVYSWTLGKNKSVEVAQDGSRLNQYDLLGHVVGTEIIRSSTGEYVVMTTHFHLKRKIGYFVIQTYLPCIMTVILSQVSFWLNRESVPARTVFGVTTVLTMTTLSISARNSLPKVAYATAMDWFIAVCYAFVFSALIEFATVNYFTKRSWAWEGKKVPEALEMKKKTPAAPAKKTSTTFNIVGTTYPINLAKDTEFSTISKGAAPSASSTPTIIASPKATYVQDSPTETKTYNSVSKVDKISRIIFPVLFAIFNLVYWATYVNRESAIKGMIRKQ
T1 sequence (P18507 whole entry): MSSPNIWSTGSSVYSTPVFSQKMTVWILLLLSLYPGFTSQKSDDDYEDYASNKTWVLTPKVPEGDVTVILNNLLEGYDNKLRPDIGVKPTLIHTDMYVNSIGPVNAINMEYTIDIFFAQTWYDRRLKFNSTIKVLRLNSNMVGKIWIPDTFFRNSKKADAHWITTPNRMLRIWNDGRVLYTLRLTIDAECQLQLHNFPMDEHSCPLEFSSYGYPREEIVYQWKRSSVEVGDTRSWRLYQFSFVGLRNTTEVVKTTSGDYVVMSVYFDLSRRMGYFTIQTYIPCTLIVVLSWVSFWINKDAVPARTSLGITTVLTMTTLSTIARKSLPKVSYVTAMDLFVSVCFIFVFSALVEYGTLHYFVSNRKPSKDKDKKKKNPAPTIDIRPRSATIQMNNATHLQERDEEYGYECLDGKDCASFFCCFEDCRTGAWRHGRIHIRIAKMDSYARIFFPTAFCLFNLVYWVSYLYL
T1 sequence (P28472 whole entry): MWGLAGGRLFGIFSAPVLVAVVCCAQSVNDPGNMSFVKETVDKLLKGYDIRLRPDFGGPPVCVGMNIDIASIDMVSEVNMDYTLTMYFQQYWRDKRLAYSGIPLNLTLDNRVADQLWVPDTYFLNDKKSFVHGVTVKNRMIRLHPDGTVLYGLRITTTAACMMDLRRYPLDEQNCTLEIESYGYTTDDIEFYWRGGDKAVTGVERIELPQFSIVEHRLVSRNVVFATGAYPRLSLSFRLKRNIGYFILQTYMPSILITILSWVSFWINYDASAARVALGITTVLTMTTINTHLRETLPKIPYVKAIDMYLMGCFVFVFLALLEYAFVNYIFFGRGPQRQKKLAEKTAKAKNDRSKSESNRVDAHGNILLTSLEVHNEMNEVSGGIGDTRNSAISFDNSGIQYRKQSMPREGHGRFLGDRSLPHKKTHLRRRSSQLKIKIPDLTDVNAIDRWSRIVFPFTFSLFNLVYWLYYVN

[2] = target: T2, Gamma-aminobutyric acid receptor subunit alpha-1/beta-3/gamma-2 (Homo sapiens, UniProt P14867+P18507+P28472); test: Displacement of [3H]flunitrazepam from human recombinant GABAA alpha-1-beta-3-gamma-2 receptor expressed in HEK cells by liquid scintillation counting
T2 sequence (P14867 whole entry): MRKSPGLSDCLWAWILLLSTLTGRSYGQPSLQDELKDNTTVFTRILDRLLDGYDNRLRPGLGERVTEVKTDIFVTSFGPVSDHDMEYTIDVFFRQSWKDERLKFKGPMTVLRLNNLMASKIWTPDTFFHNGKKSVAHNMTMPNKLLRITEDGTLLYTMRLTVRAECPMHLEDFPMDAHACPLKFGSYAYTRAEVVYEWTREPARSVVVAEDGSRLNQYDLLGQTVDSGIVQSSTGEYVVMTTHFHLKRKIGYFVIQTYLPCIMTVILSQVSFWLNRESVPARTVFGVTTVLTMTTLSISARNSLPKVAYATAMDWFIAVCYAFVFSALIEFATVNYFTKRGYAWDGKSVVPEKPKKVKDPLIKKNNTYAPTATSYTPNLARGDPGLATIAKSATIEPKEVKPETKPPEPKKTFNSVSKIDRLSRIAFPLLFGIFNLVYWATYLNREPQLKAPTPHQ
T2 sequence (P18507 whole entry): T1 sequence (P18507 whole entry)
T2 sequence (P28472 whole entry): T1 sequence (P28472 whole entry)

[3] = target: GABA A receptor alpha-4/beta-3/gamma-2 (Homo sapiens, UniProt P48169+P18507+P28472); test: Displacement of [3H]flunitrazepam from human recombinant GABAA alpha-4-beta-3-gamma-2 receptor expressed in HEK cells by liquid scintillation counting
[4] = target: T3, GABA-A receptor; alpha-2/beta-3/gamma-2 (Homo sapiens, UniProt P47869+P18507+P28472); test: Displacement of [3H]flunitrazepam from human recombinant GABAA alpha-2-beta-3-gamma-2 receptor expressed in HEK cells by liquid scintillation counting
T3 sequence (P47869 whole entry): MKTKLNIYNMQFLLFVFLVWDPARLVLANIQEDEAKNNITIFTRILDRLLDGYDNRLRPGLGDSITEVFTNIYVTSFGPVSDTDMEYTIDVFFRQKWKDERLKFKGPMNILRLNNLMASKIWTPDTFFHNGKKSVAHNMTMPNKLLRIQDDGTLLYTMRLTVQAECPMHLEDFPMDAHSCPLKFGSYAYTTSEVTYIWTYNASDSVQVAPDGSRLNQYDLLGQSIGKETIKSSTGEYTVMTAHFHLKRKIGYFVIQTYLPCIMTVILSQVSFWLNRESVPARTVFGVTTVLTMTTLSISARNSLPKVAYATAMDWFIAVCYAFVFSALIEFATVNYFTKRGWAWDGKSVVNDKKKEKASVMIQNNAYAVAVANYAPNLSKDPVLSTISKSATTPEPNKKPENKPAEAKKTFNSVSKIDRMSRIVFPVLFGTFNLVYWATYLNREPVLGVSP
T3 sequence (P18507 whole entry): T1 sequence (P18507 whole entry)
T3 sequence (P28472 whole entry): T1 sequence (P28472 whole entry)

[5] = target: T4, GABA-A receptor; alpha-5/beta-3/gamma-2 (Homo sapiens, UniProt P31644+P18507+P28472); test: Displacement of [3H]flunitrazepam from human recombinant GABAA alpha-5-beta-3-gamma-2 receptor expressed in HEK cells by liquid scintillation counting
T4 sequence (P31644 whole entry): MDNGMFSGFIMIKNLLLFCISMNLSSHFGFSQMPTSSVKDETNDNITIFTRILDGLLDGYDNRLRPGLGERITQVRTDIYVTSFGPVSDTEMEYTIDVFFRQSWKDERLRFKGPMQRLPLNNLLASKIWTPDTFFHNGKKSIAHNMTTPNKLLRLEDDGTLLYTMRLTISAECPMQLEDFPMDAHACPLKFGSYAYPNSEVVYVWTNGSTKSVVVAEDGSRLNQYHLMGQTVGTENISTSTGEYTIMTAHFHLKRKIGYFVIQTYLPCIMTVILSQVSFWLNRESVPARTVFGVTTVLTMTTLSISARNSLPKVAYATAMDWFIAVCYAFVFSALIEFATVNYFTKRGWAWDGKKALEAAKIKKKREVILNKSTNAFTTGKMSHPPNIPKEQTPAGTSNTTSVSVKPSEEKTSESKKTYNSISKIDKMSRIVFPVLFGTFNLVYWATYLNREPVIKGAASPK
T4 sequence (P18507 whole entry): T1 sequence (P18507 whole entry)
T4 sequence (P28472 whole entry): T1 sequence (P28472 whole entry)

[6] = target: Gamma-aminobutyric acid receptor subunit alpha-6/beta-3/gamma-2 (Homo sapiens, UniProt Q16445+P18507+P28472); test: Displacement of [3H]flunitrazepam from human recombinant GABAA alpha-6-beta-3-gamma-2 receptor expressed in HEK cells by liquid scintillation counting
Chain of Gamma-aminobutyric acid receptor subunit alpha-6/beta-3/gamma-2 (Q16445 whole entry, one chain of several): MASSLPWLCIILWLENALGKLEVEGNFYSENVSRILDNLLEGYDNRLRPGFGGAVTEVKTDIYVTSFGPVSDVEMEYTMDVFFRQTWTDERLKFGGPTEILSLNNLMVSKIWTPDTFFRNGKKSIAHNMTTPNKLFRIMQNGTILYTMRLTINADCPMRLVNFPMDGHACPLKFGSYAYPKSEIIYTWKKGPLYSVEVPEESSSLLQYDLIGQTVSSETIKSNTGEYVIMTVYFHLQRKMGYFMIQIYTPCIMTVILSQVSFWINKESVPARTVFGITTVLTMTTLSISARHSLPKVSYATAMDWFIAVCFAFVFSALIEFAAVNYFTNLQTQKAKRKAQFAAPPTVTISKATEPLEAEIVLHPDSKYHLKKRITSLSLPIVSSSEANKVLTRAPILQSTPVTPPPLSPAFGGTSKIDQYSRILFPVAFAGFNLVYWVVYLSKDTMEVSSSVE

Chain of GABA A receptor alpha-4/beta-3/gamma-2 (P48169 whole entry, one chain of several): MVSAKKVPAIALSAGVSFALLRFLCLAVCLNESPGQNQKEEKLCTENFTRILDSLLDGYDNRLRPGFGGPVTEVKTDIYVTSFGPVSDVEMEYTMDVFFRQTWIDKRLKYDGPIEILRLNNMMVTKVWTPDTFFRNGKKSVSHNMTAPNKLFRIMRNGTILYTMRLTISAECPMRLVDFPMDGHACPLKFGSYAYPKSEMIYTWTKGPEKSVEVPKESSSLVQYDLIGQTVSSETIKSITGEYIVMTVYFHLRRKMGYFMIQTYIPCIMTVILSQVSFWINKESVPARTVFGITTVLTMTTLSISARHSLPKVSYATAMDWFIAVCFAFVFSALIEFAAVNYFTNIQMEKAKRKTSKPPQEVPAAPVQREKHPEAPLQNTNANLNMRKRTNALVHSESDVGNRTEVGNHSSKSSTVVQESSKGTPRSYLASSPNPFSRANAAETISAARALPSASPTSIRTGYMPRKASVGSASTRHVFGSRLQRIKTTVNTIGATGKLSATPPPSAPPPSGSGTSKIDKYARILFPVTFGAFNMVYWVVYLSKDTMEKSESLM

| SMILES | Ki [1] | Ki [2] | Ki [3] | Ki [4] | Ki [5] | Ki [6] |
| --- | --- | --- | --- | --- | --- | --- |
| CC(OC(=O)c1cc2c(cn1)[nH]c1ccccc12)C(Cl)(Cl)Cl (stereo not given) [1,1,1-trichloropropan-2-yl 9H-pyrido[3,4-b]indole-3-carboxylate] | 2000 nM | 2000 nM | 3000 nM | 2000 nM | 2000 nM | 5000 nM |
| CCC(OC(=O)c1cc2c(cn1)[nH]c1ccccc12)C(F)(F)F (stereo not given) [1,1,1-trifluorobutan-2-yl 9H-pyrido[3,4-b]indole-3-carboxylate] | 1000 nM | 1000 nM | – | 1000 nM | 1000 nM | – |
